# Patent US20230167118A1, “DEGRADATION OF BRUTON'S TYROSINE KINASE (BTK) BY CONJUGATION OF BTK INIDBITORS WITH E3 LIGASE LIGAND AND METHODS OF USE” (BEIGENE, LTD., priority 2020, published 2023)
# pIC50: −log10 of the molar value.
# Key:
# BTK = biological target: T1, BTK (Homo sapiens, UniProt Q06187); assay: Cell Degradation: BTK degradation in TMD-8 cells, HTRF assay; format: cell-based; details: 6 h treatment, IC50 (DC50) of BTK degradation
# T1 construct: High control=Cell group with added DMSO and without compound, indicating microplate readings without BTK degradation; endogenous in cells; host or cells: TMD-8 cells
# Outline: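 TMD-8 cells treated 6 h with 8-dose 6-fold dilutions in 0.2% DMSO, then lysed and BTK quantified by HTRF (665/620 nm). Degradation % normalised to high/low controls; DC50 from four-parameter fit, Dmax as maximal degradation.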
# HEK-293 cells = assay: HEK-293 Cytotoxicity Assay (CellTiter-Glo); format: cell-based; details: Homo sapiens, HEK293, 72 h incubation, CellTiter-Glo luminescence
# Outline: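 HEK-293 cells treated 72 h with 8 concentrations (4-fold dilutions, 0.2% DMSO final). Viability read by CellTiter-Glo luminescence; IC50 from four-parameter logistic fit of % inhibition.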
# T1 sequence (Q06187 whole entry): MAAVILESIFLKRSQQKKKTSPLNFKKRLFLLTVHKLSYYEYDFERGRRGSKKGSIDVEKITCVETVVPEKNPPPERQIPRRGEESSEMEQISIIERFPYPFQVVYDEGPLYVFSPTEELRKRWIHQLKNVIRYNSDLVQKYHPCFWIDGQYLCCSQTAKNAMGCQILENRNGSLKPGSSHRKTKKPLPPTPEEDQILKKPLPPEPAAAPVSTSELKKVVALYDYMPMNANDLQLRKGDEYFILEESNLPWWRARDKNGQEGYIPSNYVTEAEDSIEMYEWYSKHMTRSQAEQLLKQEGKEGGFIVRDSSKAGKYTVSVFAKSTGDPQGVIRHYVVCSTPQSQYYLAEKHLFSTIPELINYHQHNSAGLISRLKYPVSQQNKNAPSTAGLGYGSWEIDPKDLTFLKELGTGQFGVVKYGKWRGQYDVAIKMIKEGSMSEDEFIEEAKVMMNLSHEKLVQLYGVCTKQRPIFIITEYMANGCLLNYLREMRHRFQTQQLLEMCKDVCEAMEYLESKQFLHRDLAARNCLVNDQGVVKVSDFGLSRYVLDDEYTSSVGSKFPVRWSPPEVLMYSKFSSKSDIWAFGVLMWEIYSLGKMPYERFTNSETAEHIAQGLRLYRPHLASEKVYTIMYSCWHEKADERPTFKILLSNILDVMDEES
Structure (SMILES),DC50 (BTK) [nM],pIC50 (HEK-293 cells)
"Cc1cc(-c2ncnc3[nH]c(-c4ccc(N5CCCN(CC6CCN(c7ccc(N8CCC(=O)NC8=O)cc7)CC6)CC5)cc4)cc23)ccc1[C@@H](C)NC(=O)c1nc(C(C)(C)C)no1 [Example 167, (R)-3-(tert-butyl)-N-(1-(4-(6-(4-(4-((1-(4-(2,4-dioxotetrahydropyrimidin-1(2H)-yl)phenyl)piperidin-4-yl)methyl)-1,4-diazepan-1-yl)phenyl)-7H-pyrrolo[2,3-d]pyrimidin-4-yl)-2-methylphenyl)ethyl)-1,2,4-oxadiazole-5-carboxamide]",2.61,< 5.00
"Cc1cc(-c2ncnc3[nH]c(-c4nn(C)c(C5=CCN(CC6CCN(c7ccc(N8CCC(=O)NC8=O)cc7)CC6)CC5)c4C)cc23)ccc1[C@@H](C)NC(=O)c1nc(C(C)(C)C)no1 [Example 174, (R)-3-(tert-butyl)-N-(1-(4-(6-(5-(1-((1-(4-(2,4-dioxotetrahydropyrimidin-1(2H)-yl)phenyl)piperidin-4-yl)methyl)-1,2,3,6-tetrahydropyridin-4-yl)-1,4-dimethyl-1H-pyrazol-3-yl)-7H-pyrrolo[2,3-d]pyrimidin-4-yl)-2-methylphenyl)ethyl)-1,2,4-oxadiazole-5-carboxamide]",1.51,< 5.00
"Cc1cc(-c2ncnc3[nH]c(-c4c(C)nn(C5CCN(CCNCC6CCN(c7ccc(N8CCC(=O)NC8=O)cc7)CC6)CC5)c4C)cc23)ccc1[C@@H](C)NC(=O)c1nc(C(C)(C)C)no1 [Example 175, (R)-3-(tert-butyl)-N-(1-(4-(6-(1-(1-(2-(((1-(4-(2,4-dioxotetrahydropyrimidin-1(2H)-yl)phenyl)piperidin-4-yl)methyl)amino)ethyl)piperidin-4-yl)-3,5-dimethyl-1H-pyrazol-4-yl)-7H-pyrrolo[2,3-d]pyrimidin-4-yl)-2-methylphenyl)ethyl)-1,2,4-oxadiazole-5-carboxamide]",1.97,5.13
"Cc1cc(-c2ncnc3[nH]c(-c4ccc(C5CCN(CC6CCN(c7ccc(N8CCC(=O)NC8=O)cc7)CC6)C5)cn4)cc23)ccc1[C@@H](C)NC(=O)c1nc(C(C)(C)C)no1 (stereo partly drawn) [Example 176, 3-(tert-butyl)-N-((1R)-1-(4-(6-(5-(1-((1-(4-(2,4-dioxotetrahydropyrimidin-1(2H)-yl)phenyl)piperidin-4-yl)methyl)pyrrolidin-3-yl)pyridin-2-yl)-7H-pyrrolo[2,3-d]pyrimidin-4-yl)-2-methylphenyl)ethyl)-1,2,4-oxadiazole-5-carboxamide]",1.1,< 5.00
"Cc1cc(-c2ncnc3[nH]c(-c4ccc(C5(F)CCN(CC6CCN(c7ccc(N8CCC(=O)NC8=O)cc7)CC6)C5)cn4)cc23)ccc1[C@@H](C)NC(=O)c1nc(C(C)(C)C)no1 (stereo partly drawn) [Example 177, 3-(tert-butyl)-N-((1R)-1-(4-(6-(5-(1-((1-(4-(2,4-dioxotetrahydropyrimidin-1(2H)-yl)phenyl)piperidin-4-yl)methyl)-3-fluoropyrrolidin-3-yl)pyridin-2-yl)-7H-pyrrolo[2,3-d]pyrimidin-4-yl)-2-methylphenyl)ethyl)-1,2,4-oxadiazole-5-carboxamide]",0.99,< 5.00
"Cc1cc(-c2ncnc3[nH]c(-c4ccc(N5CCN(Cc6ccc(C7CCC(=O)NC7=O)c(F)c6)CC5)cn4)cc23)ccc1[C@@H](C)NC(=O)c1nc(C(C)(C)C)no1 (stereo partly drawn) [Example 181, 3-(tert-butyl)-N-((1R)-1-(4-(6-(5-(4-(4-(2,6-dioxopiperidin-3-yl)-3-fluorobenzyl)piperazin-1-yl)pyridin-2-yl)-7H-pyrrolo[2,3-d]pyrimidin-4-yl)-2-methylphenyl)ethyl)-1,2,4-oxadiazole-5-carboxamide]",1.58,< 5.00
"Cc1cc(-c2ncnc3[nH]c(-c4ccc(C5CC6CCC(C5)N6CC5CCN(c6ccc(N7CCC(=O)NC7=O)cn6)CC5)cc4)cc23)ccc1[C@@H](C)NC(=O)c1nc(C(C)(C)C)no1 (stereo partly drawn) [Example 182, 3-(tert-butyl)-N-((1R)-1-(4-(6-(4-(8-((1-(5-(2,4-dioxotetrahydropyrimidin-1(2H)-yl)pyridin-2-yl)piperidin-4-yl)methyl)-8-azabicyclo[3.2.1]octan-3-yl)phenyl)-7H-pyrrolo[2,3-d]pyrimidin-4-yl)-2-methylphenyl)ethyl)-1,2,4-oxadiazole-5-carboxamide]",1.34,5.65

# Continued, in another order:
DC50 (BTK) [nM],Structure (SMILES),pIC50 (HEK-293 cells)
0.75,"Cc1cc(-c2ncnc3[nH]c(-c4cnc(N5CCN(CC6CCN(c7ccc(N8CCC(=O)NC8=O)cc7)CC6)CC5)s4)cc23)ccc1[C@@H](C)NC(=O)c1nc(C(C)(C)C)no1 [Example 168, (R)-3-(tert-butyl)-N-(1-(4-(6-(2-(4-((1-(4-(2,4-dioxotetrahydropyrimidin-1(2H)-yl)phenyl)piperidin-4-yl)methyl)piperazin-1-yl)thiazol-5-yl)-7H-pyrrolo[2,3-d]pyrimidin-4-yl)-2-methylphenyl)ethyl)-1,2,4-oxadiazole-5-carboxamide]",< 5.00
0.52,"Cc1cc(-c2ncnc3[nH]c(-c4c(C)nn(C5CN(CC6CCN(c7ccc(N8CCC(=O)NC8=O)cc7)CC6)C5)c4C)cc23)ccc1[C@@H](C)NC(=O)c1nc(C(C)(C)C)no1 [Example 169, (R)-3-(tert-butyl)-N-(1-(4-(6-(1-(1-((1-(4-(2,4-dioxotetrahydropyrimidin-1(2H)-yl)phenyl)piperidin-4-yl)methyl)azetidin-3-yl)-3,5-dimethyl-1H-pyrazol-4-yl)-7H-pyrrolo[2,3-d]pyrimidin-4-yl)-2-methylphenyl)ethyl)-1,2,4-oxadiazole-5-carboxamide]",< 5.00
0.17,"C[C@@H](NC(=O)c1nc(C(C)(C)C)no1)c1ccc(-c2ncnc3[nH]c(-c4ccc(N5CCN(CC6CCN(c7ccc(N8CCC(=O)NC8=O)cc7)CC6)CC5)cn4)cc23)cc1CO [Example 170, (R)-3-(tert-butyl)-N-(1-(4-(6-(5-(4-((1-(4-(2,4-dioxotetrahydropyrimidin-1(2H)-yl)phenyl)piperidin-4-yl)methyl)piperazin-1-yl)pyridin-2-yl)-7H-pyrrolo[2,3-d]pyrimidin-4-yl)-2-(hydroxymethyl)phenyl)ethyl)-1,2,4-oxadiazole-5-carboxamide]",< 5.00
0.25,"C[C@@H](NC(=O)c1noc(C(C)(C)C)n1)c1cc(F)c(-c2ncnc3[nH]c(-c4ccc(N5CCN(CC6CCN(c7ccc(N8CCC(=O)NC8=O)cc7)CC6)CC5)cn4)cc23)cc1CO [Example 171, (R)-5-(tert-butyl)-N-(1-(4-(6-(5-(4-((1-(4-(2,4-dioxotetrahydropyrimidin-1(2H)-yl)phenyl)piperidin-4-yl)methyl)piperazin-1-yl)pyridin-2-yl)-7H-pyrrolo[2,3-d]pyrimidin-4-yl)-5-fluoro-2-(hydroxymethyl)phenyl)ethyl)-1,2,4-oxadiazole-3-carboxamide]",< 5.00
0.24,"Cc1cc(-c2ncnc3[nH]c(-c4ccc(C5(O)CN(CC6CCN(c7ccc(N8CCC(=O)NC8=O)cc7)CC6)C5)cn4)cc23)ccc1[C@@H](C)NC(=O)c1nc(C(C)(C)C)no1 [Example 172, (R)-3-(tert-butyl)-N-(1-(4-(6-(5-(1-((1-(4-(2,4-dioxotetrahydropyrimidin-1(2H)-yl)phenyl)piperidin-4-yl)methyl)-3-hydroxyazetidin-3-yl)pyridin-2-yl)-7H-pyrrolo[2,3-d]pyrimidin-4-yl)-2-methylphenyl)ethyl)-1,2,4-oxadiazole-5-carboxamide]",< 5.00
0.98,"Cc1cc(-c2ncnc3[nH]c(-c4ccc(C5(F)CN(CC6CCN(c7ccc(N8CCC(=O)NC8=O)cc7)CC6)C5)cn4)cc23)ccc1[C@@H](C)NC(=O)c1nc(C(C)(C)C)no1 [Example 173, (R)-3-(tert-butyl)-N-(1-(4-(6-(5-(1-((1-(4-(2,4-dioxotetrahydropyrimidin-1(2H)-yl)phenyl)piperidin-4-yl)methyl)-3-fluoroazetidin-3-yl)pyridin-2-yl)-7H-pyrrolo[2,3-d]pyrimidin-4-yl)-2-methylphenyl)ethyl)-1,2,4-oxadiazole-5-carboxamide]",< 5.00
0.44,"C[C@@H](NC(=O)c1nc(C(C)(C)C)no1)c1cc(F)c(-c2ncnc3[nH]c(-c4ccc(N5CCN(CC6CCN(c7ccc(N8CCC(=O)NC8=O)cc7)CC6)CC5)cn4)cc23)cc1CO [Example 178, (R)-3-(tert-butyl)-N-(1-(4-(6-(5-(4-((1-(4-(2,4-dioxotetrahydropyrimidin-1(2H)-yl)phenyl)piperidin-4-yl)methyl)piperazin-1-yl)pyridin-2-yl)-7H-pyrrolo[2,3-d]pyrimidin-4-yl)-5-fluoro-2-(hydroxymethyl)phenyl)ethyl)-1,2,4-oxadiazole-5-carboxamide]",< 5.00
0.74,"Cc1cc(-c2ncnc3[nH]c(-c4ccc(C5CN(CC6CCN(c7ccc(N8CCC(=O)NC8=O)cc7)CC6)C5)nc4)cc23)ccc1[C@@H](C)NC(=O)c1nc(C(C)(C)C)no1 [Example 179, (R)-3-(tert-butyl)-N-(1-(4-(6-(6-(1-((1-(4-(2,4-dioxotetrahydropyrimidin-1(2H)-yl)phenyl)piperidin-4-yl)methyl)azetidin-3-yl)pyridin-3-yl)-7H-pyrrolo[2,3-d]pyrimidin-4-yl)-2-methylphenyl)ethyl)-1,2,4-oxadiazole-5-carboxamide]",5.22
0.52,"Cc1cc(-c2ncnc3[nH]c(-c4ccc(C5(O)CCN(CC6CCN(c7ccc(N8CCC(=O)NC8=O)cc7)CC6)C5)cn4)cc23)ccc1[C@@H](C)NC(=O)c1nc(C(C)(C)C)no1 (stereo partly drawn) [Example 180, 3-(tert-butyl)-N-((1R)-1-(4-(6-(5-(1-((1-(4-(2,4-dioxotetrahydropyrimidin-1(2H)-yl)phenyl)piperidin-4-yl)methyl)-3-hydroxypyrrolidin-3-yl)pyridin-2-yl)-7H-pyrrolo[2,3-d]pyrimidin-4-yl)-2-methylphenyl)ethyl)-1,2,4-oxadiazole-5-carboxamide]",6.01
